The source of these data is patent US20110306576A1, “COMPOUNDS AND METHODS RELATING THERETO” (PHARMALUCIA LIMITED, priority 2009, published 2011).

For series [1], the system named is Escherichia coli (NCTC 10418). Briefly: Antimicrobial screening, photobactericidal efficacy. Type of series: cell-based. As to the method: (§1) The photobactericidal efficacies of the derivatives in addition to that of the known photosensitiser methylene blue were measured against both Gram positive Staphylococcus aureus (NCTC 6571) and Enterococcus faecalis (NCIMB 13280) and Gram negative Escherichia coli (NCTC 10418), Proteus mirabilis (NCIMB 5887) and a clinical strain of Klebsiella pneumoniae bacteria. Both strains were grown in Mueller-Hinton Broth and then diluted to a concentration of 10^6 colony-forming units/ml. Aliquots of the strains were then incubated for 1 hour at 37° C. in microtitre trays with various concentrations of photosensitiser in a range of from 100 to 3 μM, with zero photosensitiser concentrations in each case for control purposes. The trays were then either illuminated for twenty minutes using an array of light-emitting diodes (660 nm) giving a light dose of 6.2 J cm^−2 or alternatively foil-covered to provide dark controls. From each well showing an inhibition of growth of the micro-organism, 1 μl was sub-cultured on nutrient agar, using the Miles-Misra method, and incubated for 18 hours at 37° C. The minimum bactericidal concentrations were then determined as the lowest concentration for each photosensitiser giving no bacterial growth.

Series [2] relates to Staphylococcus aureus (NCTC 6571). Described as above. It is filed as cell-based. As to the method:
as §1

A short description of series [3]: Hydrophilic-lipophilic balance (Log P), phosphate-buffered saline / 1-octanol. The protocol: The data were calculated using the standard spectrophotometric method [ref] based on the relationship:
where A and A^1 are the absorption intensities before and after partitioning respectively and Vw and Vo are the respective volumes of the aqueous and 1-octanol phases. Determinations were repeated three times.

The nature of series [4]: Singlet oxygen production (TPCPD decolourisation in dichloromethane). To be noted: singlet oxygen yield relative to methylene blue (= 1.0), time for 50% decrease in TPCPD absorption at 500 nm.
Text: Thus the decrease in absorption at 500 nm was monitored spectrophotometrically with time using the method described by Cincotta et al. in “Novel red absorbing benzo[α]phenoxazinium and benzo[α]phenothiazinium photosensitizers: in vitro evaluation”, Photochem. […] To calculate the singlet oxygen yield for the derivative compounds of the present invention (ΦΔDer), the following formula was used:
For series [5], the system named is Enterococcus faecalis (NCIMB 13280). Briefly: Antimicrobial screening, photobactericidal efficacy. Type of series: cell-based. As to conditions: for Minimum bactericidal/fungicidal concentration E. faecalis Dark: foil-covered dark control; for Minimum bactericidal/fungicidal concentration E. faecalis Light: illuminated 20 min, LED 660 nm, 6.2 J cm^−2. As to the method: as §1

In series [6] the test system is Proteus mirabilis (NCIMB 5887). Described as above. Type of series: cell-based. To be noted: for Minimum bactericidal/fungicidal concentration P. mirabilis Dark: foil-covered dark control; for Minimum bactericidal/fungicidal concentration P. mirabilis Light: illuminated 20 min, LED 660 nm, 6.2 J cm^−2. The protocol: as §1
Series [7] has as its system clinical strain of Klebsiella pneumoniae. The series is described as above. Type of series: cell-based. As to conditions: for Minimum bactericidal/fungicidal concentration K. pneumoniae Dark: foil-covered dark control; for Minimum bactericidal/fungicidal concentration K. pneumoniae Light: illuminated 20 min, LED 660 nm, 6.2 J cm^−2. The protocol:
as §1

Series [8] concerns Candida albicans (NCPF 8179). Briefly: Antifungal screening. It is filed as cell-based. To be noted: Sabouraud broth and agar; for Minimum bactericidal/fungicidal concentration C. albicans Dark: foil-covered dark control; for Minimum bactericidal/fungicidal concentration C. albicans Light: illuminated 20 min, LED 660 nm, 6.2 J cm^−2.
The conditions of series [9]: value given for the standard photosensitiser; cited from earlier work.
Setting [10] is: Escherichia coli, NCTC10418, foil-covered dark control, read-out: Minimum Bactericidal Concentration E. coli (Dark).
The mark [11] stands for this setting: Escherichia coli, NCTC10418, illuminated 20 min, LED 660 nm, 6.2 J cm^−2, 1 h incubation at 37° C., read-out: Minimum Bactericidal Concentration E. coli (Light).
Where [12] appears, read: Staphylococcus aureus, NCTC6571, foil-covered dark control, read-out: Minimum Bactericidal Concentration S. aureus (Dark).
Setting [13] is: Staphylococcus aureus, NCTC6571, illuminated 20 min, LED 660 nm, 6.2 J cm^−2, 1 h incubation at 37° C., read-out: Minimum Bactericidal Concentration S. aureus (Light).
[14] abbreviates: phosphate-buffered saline / 1-octanol.
[15] abbreviates: foil-covered dark control, read-out: Minimum Bactericidal Concentration E. coli (Dark).
Where [16] appears, read: illuminated 20 min, LED 660 nm, 6.2 J cm^−2, 1 h incubation at 37° C., read-out: Minimum Bactericidal Concentration E. coli (Light).
Setting [17] is: foil-covered dark control, read-out: Minimum Bactericidal Concentration S. aureus (Dark).
Setting [18] is: illuminated 20 min, LED 660 nm, 6.2 J cm^−2, 1 h incubation at 37° C., read-out: Minimum Bactericidal Concentration S. aureus (Light).
Setting [19] is: partition between phosphate-buffered saline and 1-octanol, spectrophotometric method, repeated three times.

Where two headings read alike, the source gives them in different places. Some results are limits rather than exact numbers.

Regarding `CCN(CC)CCN(C)c1ccc2nc3ccc(N(C)CCN(CC)CC)cc3[s+]c2c1` [Example 4f, 3,7-Bis((2-(diethylamino)ethyl)(methyl)amino)phenothiazinium bromide], the MBC in [1] (setting [10]) was greater than 100 µM; in series [1] (setting [11]) it was 3.12 µM; in [2] (setting [12]), greater than 100 µM; in series [2] (setting [13]), 6.25 µM. Also, the logP (usually the decadic logarithm of the partition coefficient of the neutral form, usually between octanol and water) in [3] (setting [14]) amounted to 0.27. Moreover, the “Relative ΦΔ” value in [4] is reported as 0.6.

With `OCCN(CCO)c1ccc2nc3ccc(NCCCN4CCOCC4)cc3[s+]c2c1.[I-]` [Example 7f], the MBC came to 50 µM in series [1] (setting [15]), 25 µM in series [1] (setting [16]), 25 µM in series [2] (setting [17]) and 25 µM in series [2] (setting [18]). Moreover, the logP result in [3] (setting [19]) is “+0.57”. In addition, the “Relative ΦΔ” value in [4] is 0.2.

In the case of `CCCCN(CCCC)c1ccc2nc3ccc(N(CC)CCN(CC)CC)cc3[s+]c2c1` [Example 7c, 3-(Di-n-butylamino)-7-((2-(diethylamino)ethyl)(ethyl)amino)phenothiazinium iodide], the MBC in series [1] (setting [10]) is 25 µM. Further, the MBC in series [1] (setting [11]) was determined as 6.25 µM. The MBC in [2] (setting [12]) worked out at 25 µM. In series [2] (setting [13]), the MBC was 12.5 µM. Besides, in series [5], the “Minimum bactericidal/fungicidal concentration E. faecalis Dark” value was 6.25 µM and the “Minimum bactericidal/fungicidal concentration E. faecalis Light” value came out at 0.39 µM. In series [6], the “Minimum bactericidal/fungicidal concentration P. mirabilis Dark” value worked out at 100 µM and the “Minimum bactericidal/fungicidal concentration P. mirabilis Light” value amounted to 0.78 µM. In addition, in [7], the “Minimum bactericidal/fungicidal concentration K. pneumoniae Dark” value turned out to be 100 µM and the “Minimum bactericidal/fungicidal concentration K. pneumoniae Light” value amounted to 6.25 µM. Besides, in series [8], the “Minimum bactericidal/fungicidal concentration C. albicans Dark” value was determined as 25 µM and the “Minimum bactericidal/fungicidal concentration C. albicans Light” value was determined as 3.13 µM. Further, in series [3] (setting [14]), the logP stood at 1.09. Besides, the “Relative ΦΔ” value in series [4] was 0.3.

As for `CCN(CC)CCCN(CCCN(CC)CC)c1ccc2nc3ccc(N(CCCN(CC)CC)CCCN(CC)CC)cc3[s+]c2c1` [Example 4b, 3,7-Bis(bis(3-(diethylamino)propyl)amino)phenothiazinium bromide], the MBC turned out to be 100 µM in [1] (setting [10]), 25 µM in series [1] (setting [11]), 100 µM in [2] (setting [12]) and 50 µM in series [2] (setting [13]). Besides, in series [3] (setting [14]), the logP is 0.11.

Turning to “3-(Di-n-hexylamino)-7-((2-(diethylamino)ethyl)(ethyl)amino)phenothiazinium iodide [Example 7b]”, in series [1] (setting [15]), the MBC was 25 µM. For the same compound, the MBC in series [1] (setting [16]) came out at 6.25 µM. Further, the MBC in series [2] (setting [17]) was 12.5 µM. Moreover, the MBC in series [2] (setting [18]) was 3.125 µM. Moreover, in series [5], the “Minimum bactericidal/fungicidal concentration E. faecalis Dark” value worked out at 100 µM and the “Minimum bactericidal/fungicidal concentration E. faecalis Light” value was 0.19 µM. In [6], the “Minimum bactericidal/fungicidal concentration P. mirabilis Dark” value was determined as 100 µM and the “Minimum bactericidal/fungicidal concentration P. mirabilis Light” value stood at 0.39 µM. In addition, in [7], the “Minimum bactericidal/fungicidal concentration K. pneumoniae Dark” value was determined as 100 µM and the “Minimum bactericidal/fungicidal concentration K. pneumoniae Light” value turned out to be 0.19 µM. Moreover, in series [8], the “Minimum bactericidal/fungicidal concentration C. albicans Dark” value is 25 µM and the “Minimum bactericidal/fungicidal concentration C. albicans Light” value was 3.13 µM. Further, in series [3] (setting [19]), the logP result is reported as “+1.25”. The “Relative ΦΔ” value in [4] was 0.4.

In the case of `CCN(CC)CCCC(C)Nc1ccc2nc3ccc(N(CC)CC)cc3[s+]c2c1` (stereo not drawn) [Example 7a, 3-(Diethylamino)-7-(5-(diethylamino)pentan-2-ylamino)phenothiazinium iodide], the MBC in series [1] (setting [10]) turned out to be 100 µM; in series [1] (setting [11]), 50 µM; in [2] (setting [12]), 100 µM; in series [2] (setting [13]), 25 µM. Further, the logP in series [3] (setting [14]) stood at 0.65. The “Relative ΦΔ” value in series [4] came out at 0.2.

Turning to `CCCCN(CCCC)c1ccc2nc3ccc(N4CCN(CCN5CCN(c6ccc7nc8ccc(N(CCCC)CCCC)cc8[s+]c7c6)CC5)CC4)cc3[s+]c2c1.[I-].[I-]` [Example 7g, 7,7′-(4,4′-(ethane-1,2-diyl)bis(piperazine-4,1-diyl))bis(3-(dibutylamino)phenothiazin-5-ium)iodide], in series [5], the “Minimum bactericidal/fungicidal concentration E. faecalis Dark” value was 12.5 µM and the “Minimum bactericidal/fungicidal concentration E. faecalis Light” value was determined as 1.56 µM. Also, in series [6], the “Minimum bactericidal/fungicidal concentration P. mirabilis Dark” value came out at 100 µM and the “Minimum bactericidal/fungicidal concentration P. mirabilis Light” value worked out at 0.78 µM. In series [7], the “Minimum bactericidal/fungicidal concentration K. pneumoniae Dark” value is 100 µM and the “Minimum bactericidal/fungicidal concentration K. pneumoniae Light” value turned out to be 3.13 µM. Moreover, in [8], the “Minimum bactericidal/fungicidal concentration C. albicans Dark” value was found to be 25 µM and the “Minimum bactericidal/fungicidal concentration C. albicans Light” value was 3.13 µM.

As to `CN(C)c1ccc2nc3ccc(N(C)C)cc3[s+]c2c1` [Methylene blue, reference compound], the MBC in series [1] (setting [11]) and in series [2] (setting [13]) was 25 µM throughout. Besides, the “singlet oxygen yield (ΦΔMB)” value in series [9] is recorded as 0.443. The “Relative ΦΔ” value in series [4] worked out at 1.00.

For `CCCN(CCC)c1ccc2nc3ccc(N(CCCN(C)C)CCCN(C)C)cc3[s+]c2c1` [Example 7e, 3-(Bis(3-(dimethylamino)propyl)amino)-7-(di-n-propylamino)phenothiazinium iodide], in series [1] (setting [10]), the MBC was greater than 100 µM. For the same compound, the MBC in [1] (setting [11]) came out at 3.12 µM. In series [2] (setting [12]), the MBC is greater than 100 µM. Also, in [2] (setting [13]), the MBC worked out at 3.12 µM. Further, in [5], the “Minimum bactericidal/fungicidal concentration E. faecalis Dark” value worked out at 100 µM and the “Minimum bactericidal/fungicidal concentration E. faecalis Light” value worked out at 0.19 µM. Besides, in series [6], the “Minimum bactericidal/fungicidal concentration P. mirabilis Dark” value was determined as 100 µM and the “Minimum bactericidal/fungicidal concentration P. mirabilis Light” value turned out to be 0.39 µM. In addition, in series [7], the “Minimum bactericidal/fungicidal concentration K. pneumoniae Dark” value was found to be 100 µM and the “Minimum bactericidal/fungicidal concentration K. pneumoniae Light” value stood at 3.13 µM. Moreover, in series [8], the “Minimum bactericidal/fungicidal concentration C. albicans Dark” value worked out at 100 µM and the “Minimum bactericidal/fungicidal concentration C. albicans Light” value amounted to 3.13 µM.

Regarding `CO[Si](CCCNc1ccc2nc3ccc(N(C)C)cc3[s+]c2c1)(OC)OC` [Example 2b, 3-(3-Trimethoxsilylpropyl)amino-7-dimethylaminophenothiazinium hydrogensulphate], in series [5], the “Minimum bactericidal/fungicidal concentration E. faecalis Dark” value stood at 50 µM and the “Minimum bactericidal/fungicidal concentration E. faecalis Light” value was found to be 0.78 µM. Also, in series [6], the “Minimum bactericidal/fungicidal concentration P. mirabilis Dark” value worked out at 100 µM and the “Minimum bactericidal/fungicidal concentration P. mirabilis Light” value came out at 1.56 µM. For the same compound, in series [7], the “Minimum bactericidal/fungicidal concentration K. pneumoniae Dark” value worked out at 100 µM and the “Minimum bactericidal/fungicidal concentration K. pneumoniae Light” value came to 1.56 µM. In [8], the “Minimum bactericidal/fungicidal concentration C. albicans Dark” value turned out to be 25 µM and the “Minimum bactericidal/fungicidal concentration C. albicans Light” value worked out at 3.13 µM.

Regarding `CCN(CC)CCN(C)c1ccc2nc3ccc(N(CC)CC)cc3[s+]c2c1` [Example 7d, 3-(Diethylamino)-7-((2-(diethylamino)ethyl)(methyl)amino)phenothiazinium iodide], the MBC in series [1] (setting [10]) was found to be 100 µM; in series [1] (setting [11]), 50 µM; in series [2] (setting [12]), 50 µM; in series [2] (setting [13]), 25 µM. The same compound came in with a logP in series [3] (setting [14]) of 0.74. Also, in [4], the “Relative ΦΔ” value stood at 1.4.

As for `CN(C)CCCN(CCCN(C)C)c1ccc2nc3ccc(N(CCCN(C)C)CCCN(C)C)cc3[s+]c2c1` [Example 4a, 3,7-Bis(bis(3-(dimethylamino)propyl)amino)phenothiazinium bromide], the MBC was determined as 12.5 µM in [1] (setting [10]), 3.12 µM in series [1] (setting [11]), 6.25 µM in series [2] (setting [12]) and 3.12 µM in series [2] (setting [13]).
